Here are results for three molecules from paper PMC12617972, “Inhibition of human cytomegalovirus replication by valaciclovir” (The Journal of General Virology, 2025).

Data set [1] has as its system HSV-1 strain 17+. Description: Virus yield assay, HSV in HFF cells. Format: cell-based, herpes simplex virus. As to conditions: HFF (adult fibroblast) cells, MOI 1, 48 h post-infection.
The test system of data set [2] is HCMV strain Merlin (R1111). The experiment in a line: microbe, parasite or virus in culture. Format: cell-based, human cytomegalovirus. The note with it: for EC50: read-out: 50% effective dose (EC50), anti-HCMV activity; for anti-HCMV activity in HFFF cells relative to other cell lines: HFFF cells vs HFF and SGHPL-4 cells.
Data set [3] concerns HCMV. The note with it: previous studies; cited from earlier work.
The test system of data set [4] is uninfected cell. More on the design: method as in PMID 16492567. The note with it: cited from earlier work.
Data set [5] has as its system HFF cells. The note with it: uninfected HFF cells, 96 h, high and low cell numbers.
Data set [6] relates to HFFF cells. As to conditions: uninfected HFFF cells, 96 h, high and low cell numbers.
Data set [7] deals with SGHPL-4 cells. As to conditions: uninfected SGHPL-4 cells, 96 h, high and low cell numbers, 0.5% FBS.
The conditions of data set [8]: 2,000 mg dose; calculated with ChatGPT3 as Cmax × 1,000/molecular weight from commonly used literature Cmax values; cited from earlier work.
Data set [9] has as its system HCMV. Set-up: method as in PMID 32919517. The note with it: high doses administered during pregnancy, clinical trial; cited from earlier work.
The conditions of data set [10]: 2,000 mg/6 h; cited from earlier work.
The mark [11] stands for this setting: Human betaherpesvirus 5, Fibroblast, 96 h.
The mark [12] stands for this setting: HFF, HFFF and SGHPL-4 cells, MOI 1, 96 h.

“Also recorded” adds a separate entry of the source. Read-outs that look alike come from different tables or passages of the source.

With `Nc1nc(O)c2ncn(COC(CO)CO)c2n1` [GCV, ganciclovir], the “50% effective dose (EC50), anti-HSV activity” value in [1] is given as “well below micromolar concentrations”. For the same molecule, in data set [2] (setting [11]), the EC50 was determined as 0.5 µM. For the same molecule, in data set [2] (found here, HFF cells), the “difference between GCV and ACV inhibition of HCMV” value is “approximately fivefold difference”. The “difference between GCV and ACV anti-HCMV effects in vitro” value in data set [3] is listed as “approximately tenfold difference; also recorded: approximately tenfold greater”. Also, the “effect on uninfected cell viability in vitro” value in data set [4] is on record as “little or no effect”.
`CC(C)[C@H](N)C(=O)OCCOCn1cnc2c(=O)[nH]c(N)nc21` [VACV, valaciclovir]: the “anti-HCMV effects compared to GCV” value in data set [2] (setting [12]) is recorded as “less anti-HCMV effects compared to GCV”. In [2] (HFF, HFFF and SGHPL-4 cells, lower drug concentration, MOI 1, 96 h), the “inhibition of HCMV replication in each cell line” value is reported as “inhibitor of HCMV in all cell lines”. Moreover, the “anti-HCMV activity in HFFF cells relative to other cell lines” value in [2] (MOI 1, 96 h) was “less than in HFF and SGHPL-4 cells”. For the same molecule, the EC50 in [2] (Human betaherpesvirus 5, HFF (adult fibroblast) cells, MOI 1, 96 h post-infection, virus yield) is 3.4 µM. The “effect on cell viability and cell division (MTT)” value in [5], in [6] and in data set [7] was “no obvious effect on cell viability” throughout. Also, in data set [8], the plasma concentration is 35 to 40 µM. For the same molecule, the “inhibition of HCMV foetal infection” value in data set [9] is recorded as “notable inhibition of HCMV foetal infection”. In addition, the tolerability in patients entry in [10] is “well tolerated by patients, without toxicity”.
Consider `Nc1nc2c(ncn2COCCO)c(=O)[nH]1` [ACV, aciclovir], for which the “50% effective dose (EC50), anti-HSV activity” value in data set [1] is “well below micromolar concentrations”. For the same molecule, in data set [2] (setting [12]), the “anti-HCMV effects compared to GCV” value is “less anti-HCMV effects compared to GCV”. The “anti-HCMV activity in HFFF cells relative to other cell lines” value in data set [2] (MOI 1, 96 h) was “less than in HFF and SGHPL-4 cells”. The EC50 in data set [2] (setting [11]) came out at 2.7 µM.
